The target of data set [1] is T1, human MAO-A (Homo sapiens, UniProt P21397).
T1 sequence (P21397 1-527): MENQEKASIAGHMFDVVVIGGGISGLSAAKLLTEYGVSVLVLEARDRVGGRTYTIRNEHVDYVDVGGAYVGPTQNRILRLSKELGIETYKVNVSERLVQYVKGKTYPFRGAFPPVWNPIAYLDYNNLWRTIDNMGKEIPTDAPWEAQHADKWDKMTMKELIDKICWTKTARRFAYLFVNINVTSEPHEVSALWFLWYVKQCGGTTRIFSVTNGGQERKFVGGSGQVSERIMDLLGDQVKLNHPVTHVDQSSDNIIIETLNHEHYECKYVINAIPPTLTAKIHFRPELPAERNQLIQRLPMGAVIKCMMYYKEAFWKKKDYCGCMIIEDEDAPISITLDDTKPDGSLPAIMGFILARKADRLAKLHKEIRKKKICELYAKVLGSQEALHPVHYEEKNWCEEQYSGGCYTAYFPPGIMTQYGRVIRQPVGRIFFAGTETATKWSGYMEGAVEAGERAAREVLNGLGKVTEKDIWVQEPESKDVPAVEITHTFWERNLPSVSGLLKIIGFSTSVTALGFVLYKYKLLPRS
The experiment in a line: Human MAO-A assay (recombinant enzyme, Amplex Red fluorescence). The note with it: for inhibition at 10 µM: read-out: human MAO-A % inhibition at 10 μM.

For data set [2], the target named is T2, human MAO-B (Homo sapiens, UniProt P27338).
T2 sequence (P27338 1-520): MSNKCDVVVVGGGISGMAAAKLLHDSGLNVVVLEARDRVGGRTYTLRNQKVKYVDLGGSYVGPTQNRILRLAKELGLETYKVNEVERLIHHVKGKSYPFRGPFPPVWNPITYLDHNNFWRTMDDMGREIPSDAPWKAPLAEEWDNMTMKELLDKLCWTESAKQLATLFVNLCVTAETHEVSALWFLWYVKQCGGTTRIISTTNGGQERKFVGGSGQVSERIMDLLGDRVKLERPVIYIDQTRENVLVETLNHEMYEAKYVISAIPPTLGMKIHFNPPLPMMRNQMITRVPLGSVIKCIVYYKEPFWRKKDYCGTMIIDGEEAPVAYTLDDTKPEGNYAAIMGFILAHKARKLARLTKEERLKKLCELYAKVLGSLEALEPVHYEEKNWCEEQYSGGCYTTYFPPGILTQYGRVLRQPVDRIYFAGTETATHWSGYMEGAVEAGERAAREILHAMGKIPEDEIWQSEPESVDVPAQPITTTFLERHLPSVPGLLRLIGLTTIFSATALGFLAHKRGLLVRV
The experiment in a line: Human MAO-B assay (recombinant enzyme, Amplex Red fluorescence). The class given is biochemical. The arrangement: purchased Sigma-Aldrich M7441; host or cells: baculovirus-infected insect cells (microsomal product). The note with it: p-tyramine 150 μM.

Data set [3] concerns the target T3, rat MAO-A (Rattus norvegicus, UniProt P21396).
T3 construct: from tissue; host or cells: rat liver mitochondria (male Sprague-Dawley rats)
T3 sequence (P21396 1-526): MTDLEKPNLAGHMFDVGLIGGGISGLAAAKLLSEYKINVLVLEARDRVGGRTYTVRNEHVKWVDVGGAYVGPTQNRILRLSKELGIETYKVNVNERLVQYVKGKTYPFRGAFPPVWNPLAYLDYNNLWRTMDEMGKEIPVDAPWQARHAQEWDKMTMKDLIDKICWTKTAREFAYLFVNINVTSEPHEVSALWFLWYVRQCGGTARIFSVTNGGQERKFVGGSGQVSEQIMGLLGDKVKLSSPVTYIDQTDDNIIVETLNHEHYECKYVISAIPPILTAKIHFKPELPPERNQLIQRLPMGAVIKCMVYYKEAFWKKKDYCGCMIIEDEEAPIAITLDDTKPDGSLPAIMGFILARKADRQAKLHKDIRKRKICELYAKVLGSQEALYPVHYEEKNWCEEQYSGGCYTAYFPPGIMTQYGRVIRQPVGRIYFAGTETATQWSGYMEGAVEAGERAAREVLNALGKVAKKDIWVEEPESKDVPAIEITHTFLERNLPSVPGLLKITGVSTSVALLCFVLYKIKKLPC
The experiment in a line: Rat MAO-A assay (Amplex Red fluorescence, rat liver mitochondria pre-treated with deprenyl). It is filed as biochemical. To be noted: for inhibition at 10 µM: read-out: rat MAO-A (rat liver mitochondria) % inhibition at 10 μM.
Experimental: (§1) Male Sprague-Dawley (Harlan Sprague Dawley, Dublin, Va., US) rats (250-300 g) were sacrificed under light anesthesia and their livers were dissected. […] After homogenization, the volume is adjusted to 100 mL with the same buffer. After a low speed centrifugation (10 min at 600 g; 4° C.), the supernatant is further centrifuged at 15,000 rpm for 5 min at +4° C. The resulting pellet was resuspended in 2.0 mL of a 50 mM sodium/phosphate buffer (pH 7.4) and stored at −80° C. in aliquots of 1.0 mL each until further use.
(§2) The Amplex® Red reagent was prepared as recommended in the kit from Invitrogen (A12214). […] Clorgyline (1.0 μM) from Sigma Aldrich (M3778) was used to determine non-MAO-A enzyme activity and concentration-response curves of clorgyline serve as positive control.

In data set [4] the target is T4, rat MAO-B (Rattus norvegicus, UniProt P19643).
T4 construct: from tissue; host or cells: rat liver mitochondria (male Sprague-Dawley rats)
T4 sequence (P19643 1-520): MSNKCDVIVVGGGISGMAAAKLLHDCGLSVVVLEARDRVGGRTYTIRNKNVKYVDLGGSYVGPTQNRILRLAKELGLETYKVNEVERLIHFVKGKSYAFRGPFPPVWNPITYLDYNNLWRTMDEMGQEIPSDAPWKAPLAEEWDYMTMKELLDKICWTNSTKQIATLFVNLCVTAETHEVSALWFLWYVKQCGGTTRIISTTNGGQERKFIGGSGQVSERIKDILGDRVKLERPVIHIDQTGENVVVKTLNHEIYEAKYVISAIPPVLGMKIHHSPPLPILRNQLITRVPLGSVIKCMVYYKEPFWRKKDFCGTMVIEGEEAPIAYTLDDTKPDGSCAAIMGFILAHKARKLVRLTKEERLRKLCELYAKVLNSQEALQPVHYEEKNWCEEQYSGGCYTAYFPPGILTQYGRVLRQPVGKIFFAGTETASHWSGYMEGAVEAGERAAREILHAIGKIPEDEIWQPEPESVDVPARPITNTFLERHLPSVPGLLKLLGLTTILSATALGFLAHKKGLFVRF
As to the kind of experiment: Rat MAO-B assay (Amplex Red fluorescence, rat liver mitochondria pre-treated with clorgyline 30 nM). It is filed as biochemical. The note with it: rat liver mitochondria pre-treated with clorgyline 30 nM; read-out: rat MAO-B (rat liver mitochondria) IC50.
Experimental: as §1, §2

Data set [5] is described as follows: Storage stability (physicochemical properties, Table 1). To be noted: specified storage temperature (room temperature).
The target of data set [6] is T2, human MAO-B. As to the kind of experiment: MAO-B reactivation experiment (time-dependent inhibition, reversibility). The note with it: compound at IC80; p-tyramine raised from 10 μM to 1.0 mM; monitored 5 hours.
A short description of data set [7]: Solubility in organic solvents and in water (physicochemical properties, Table 1). The note with it: for solubility: water, aqueous buffer.
Data set [8] has as its target T2, human MAO-B. As to the kind of experiment: Assay for mode of MAO-B inhibition (substrate-dependent kinetics, Lineweaver-Burk plots). The class given is biochemical. Also noted: purchased Sigma-Aldrich M7441; host or cells: baculovirus-infected insect cells (microsomal product). To be noted: p-tyramine 0.05-[…]; inhibitor 0.1-10 nM; n=2.
Experimental: The type of MAO-B enzyme inhibition was determined by Michaelis-Menten kinetic experiments and sets of Lineweaver-Burk plots were generated. The reciprocal MAO-B activity was plotted against the reciprocal substrate concentration (n=2). […] The enzymatic reactions and measurements were performed using human MAO-B assay conditions, applied for the determination of IC50 values. The experiment was performed in duplicate.
The mark [9] stands for this setting: read-out: human MAO-A IC50, recombinant human enzyme, p-tyramine 150 μM.
Setting [10] is: rat liver mitochondria, substrate p-tyramine, read-out: rat MAO-A (rat liver mitochondria) IC50.

The term melting point denotes the temperature of the solid-liquid transition. The inhibition is the percentage by which the read-out fell short of the control. By IC50 is commonly meant the concentration that inhibits the measured activity by half. As a reminder, the solubility is the concentration that dissolves in the medium under given conditions.

The structures appear in SMILES notation. Where two headings read alike, the source gives them in different places.

Regarding `COc1cc(NC(=O)c2ccc3[nH]ncc3c2)ccc1Cl` [Example 4, N-(4-chloro-3-methoxy)-1H-indazole-5-carboxamide], the melting point fell in the range of 279.6 to 281.6 °C. Also, the inhibition at 10 µM in data set [1] was 62%. Besides, the IC50 in data set [1] (setting [9]) is 8790 ± 200 nM. Moreover, in [2], the half-inhibitory concentration (IC50) was 4.36 ± 0.08 nM. Moreover, the IC50 in data set [3] (setting [10]) was above 10000 nM. For the same compound, the inhibition at 10 µM in data set [3] (rat liver mitochondria) worked out at 24%. Besides, in [4], the IC50 was 43.1 ± 4.2 nM.

Compound `O=C(Nc1ccc(O)c(Cl)c1)c1ccc2[nH]ncc2c1` [Example 5, N-(3-chloro-4-hydroxyphenyl)-1H-indazole-5-carboxamide] displayed a melting point of 272.2 to 273.4 °C. In data set [1], the IC50 was above 10000 nM and the inhibition at 10 µM amounted to 33%. For the same compound, the concentration for half-maximal inhibition (IC50) in [2] worked out at 123 ± 16 nM. Also, the IC50 in [3] (setting [10]) is below 10000 nM. For the same compound, the inhibition at 10 µM in data set [3] (rat liver mitochondria) is 60%. The IC50 in data set [4] was 941 ± 51 nM.

Consider `Cn1ncc2cc(C(=O)Nc3ccc(Cl)c(Cl)c3)ccc21` [Example 13], for which the Stability entry in [5] is “Stable under specified storage temperature (room”. Besides, the inhibition at 10 µM in [1] came to 37%; in data set [3] (rat liver mitochondria), 42%. The “reversibility of MAO-B inhibition (enzyme reactivation after raising substrate)” value in data set [6] is reported as “reversible MAO-B inhibitors”. For the same compound, the results for the half-inhibitory concentration (IC50) in data set [3] and in [4] were above 10000 nM and 1.32 ± 0.09 nM, respectively. For the same compound, the “Solubility in water” value in data set [7] (hot water) was “Very slightly soluble in hot water”. In addition, the Solubilty inorganic solvents entry in [7] (in DMSO, DMF, MeOH, EtOH, i-PrOH, n-BuOH, t-BuOH, acetonitrile (Soluble)) is recorded as “Soluble (0.01-0.03 mL per 1.0 mg) in DMSO, DMF,”; in [7] (in petroleum ether, Et2O and n-hexane (Insoluble)), “Insoluble (>10 mL per 1.0 mg) in petroleum ether,”. Moreover, the solubility in data set [7] (at 22.5° C., pH 7.4) is below 0.01 µg/mL; in [7] (at 90° C., pH 7.4, pH 1.0), below 0.035 µg/mL. In addition, the “mode of MAO-B inhibition (Lineweaver-Burk plots)” value in [8] was “linear and intersected at the y-axis with the plot for the uninhibited enzyme”.

In turn, `COc1ccc(NC(=O)c2ccc3[nH]ncc3c2)cc1Cl` [Example 3, N-(3-chloro-4-methoxy)-1H-indazole-5-carboxamide] showed a melting point of 276.2 to 277.8 °C. Also, in [1], the 50% inhibitory concentration (IC50) was above 10000 nM and the inhibition at 10 µM was 30%. Also, in [2], the IC50 is 3.42 ± 0.28 nM. In addition, the IC50 in data set [3] (setting [10]) is above 10000 nM. Moreover, in data set [3] (rat liver mitochondria), the inhibition at 10 µM came to 13%. The half-inhibitory concentration (IC50) in data set [4] was 21.9 ± 3.4 nM.

Regarding `C[C@H](NCc1ccc(OCc2cccc(F)c2)cc1)C(N)=O` [safinamide, reference compound], the “reversibility of MAO-B inhibition (enzyme reactivation after raising substrate)” value in data set [6] is “The same result was observed”.

In turn, `O=C(Nc1ccc(Cl)c(O)c1)c1ccc2[nH]ncc2c1` [Example 6, N-(4-chloro-3-hydroxyphenyl)-1H-indazole-5-carboxamide] showed a melting point of 306.6 to 307.3 °C. Besides, the inhibition at 10 µM in data set [1] was 81%. In addition, the IC50 in [1] (setting [9]) is 3000 ± 122 nM. For the same compound, the IC50 in data set [2] amounted to 37.5 ± 7.3 nM. The IC50 in data set [3] (setting [10]) was above 10000 nM. In addition, the inhibition at 10 µM in [3] (rat liver mitochondria) is 43%. In addition, the IC50 in [4] stood at 385 ± 9 nM.

On to `COc1ccc(NC(=O)c2ccc3[nH]ncc3c2)cc1OC` [Example 7, N-(3,4-dimethoxyphenyl)-1H-indazole-5-carboxamide], for which the melting point was in the range of 258.3 to 261.3 °C. Further, in data set [1], the IC50 is above 10000 nM and the inhibition at 10 µM came out at 9%. Moreover, the IC50 in data set [2] stood at 185 ± 21 nM. In [3] (setting [10]), the concentration for half-maximal inhibition (IC50) was above 10000 nM. Also, the inhibition at 10 µM in data set [3] (rat liver mitochondria) turned out to be 9%. In data set [4], the half-inhibitory concentration (IC50) worked out at 1400 ± 56 nM.

Values taken from patent publication US9643930B2, “Substituted indazole derivatives as in vitro MAO-B inhibitors” (“NTZ LAB” LTD., priority 2013, dated 2017).
